# According to US20250082931A1, “Treating Gastric Cancer Using TTFields Combined with XELOX, FOLFOX or the Individual Constituents Thereof” (Novocure GmbH, priority 2019, published 2025):
# Experiments:
# KATO III cells [1] = test: Overall effect (cytotoxic effect x clonogenic effect); conditions: 72 h
# Procedure: (§1) After 6-14 days the colonies were fixed, stained and counted to determine clonogenic effect. The overall effect was calculated by multiplying the cytotoxic effect and the clonogenic effect.
# Overall effect: Each colony number was multiply in the percent of cytotoxic effect of its dish and averages and standard deviations of each treatment were calculated in Excel software. […] Significant was determine by 2-way ANOVA followed Multiple comparison using GraphPed software.
# KATO III cells [2] = test: Clonogenic effect (colonies count); conditions: for colonies count: 72 h;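 as to all read-outs here: after treatment, KATO III cells were reseeded and grown 6–14 days, then colonies were fixed, stained and counted, expressed as percent of untreated (no drug) control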
# Procedure: After 72 h of treatment the media and the cells were collected, and cytotoxicity was determined by cell counts. […] For the testing of the clonogenic effect, cells were seeded for colonies.
# as §1
# Clonogenic effect: The colonies from each well were counted using ImageJ software. Average and standard deviation of colony number of at least 5 wells from each treatment were calculated in excel software. The averages from these repeats was calculated to averages and standard errors and is presented as percent from control (no drug treatment) in XY graph of points with error bars using GraphPed software. Significant was determine by 2-way ANOVA followed Multiple comparison using GraphPed software.
# KATO III cells [3] = system: KATO III cells
# Procedure: (§2) During the treatment the media of all dishes was replaced every 24 h (“hours”).
# (§3) After 72 h of treatment the media and the cells were collected, and cytotoxicity was determined by cell counts.
# (§4) Cells were seeded on inovitro dishes and petri dishes 24 h before starting the experiments. Media containing the indicated concentration of each chemotherapy component alone or FOLFOX and control media was added to the cells and the dishes were connected to TTFields (as in SOP-BI-009) or grown in 37° C., 5% CO2 for 72 h. Each treatment included 8 repeats (8 dishes). The media was replaced every 24 h. At the end of the experiment the cells were collected, and cytotoxicity was determined by cell counts, small number of cells were seeded for colonies and the cells (including cells from the media) were stained for Annexin V and 7AAD for apoptosis analysis.
# (§5) A TTFields generator (Inovitro systems) was used to apply the treatment to the cells.
# (§6) Cytotoxic effect: Average and standard deviation of cell number of at least 5 dishes from each treatment was calculated in Excel software. The averages from these repeats was calculated to averages and standard error and is presented as percent from control (no drug treatment) in XY graph of points with error bars using GraphPed software. Significant was determine by 2-way ANOVA followed Multiple comparison using GraphPed software.
# AGS cells [4] = test: Cytotoxic effect by cell count after 72 h, with and without TTFields
# Procedure: as §2, §3, §4, §5, §6
# AGS cells [5] = system: AGS cells
# Procedure: as §2, §3, §4, §5, §6
# AGS cells [6] = test: Apoptosis analysis by Annexin V / 7AAD staining; format: cell-based; conditions: for AnnV+ 7AAD+ cell fraction / AnnV+ 7AAD− cell fraction / AnnV− 7AAD+ cell fraction / AnnV− 7AAD− cell fraction: 72 h
# Procedure: After 72 h of treatment the media and the cells were collected, and cytotoxicity was determined by cell counts. Cells (including cells from the media) were stained for Annexin V and 7AAD for apoptosis analysis. For the testing of the clonogenic effect, cells were seeded for colonies.
# as §4
# Apoptotic effect: Average of cell fraction of each marker staining (Annexin V and 7AAD) of at least 5 dishes from each treatment was calculated in Excel software. The averages from these repeats was calculated to averages and is presented in stacked bar graph using GraphPed software.
# KATO III cells [7] = test: Cytotoxic effect by cell count after 72 h, with and without TTFields; conditions: 1.5 uM
# Procedure: as §2, §3, §4, §5, §6
# [8] = 1.5 uM, + TTFields 150 kHz 1.6 V/cm
# [9] = 4.5 uM, + TTFields 150 kHz 1.6 V/cm
# [10] = 13.5 uM, + TTFields 150 kHz 1.6 V/cm
# [11] = 40 uM, + TTFields 150 kHz 1.6 V/cm
# [12] = 0.5 uM, + TTFields 150 kHz 1.0 V/cm
# [13] = 1.5 uM, + TTFields 150 kHz 1.0 V/cm
# [14] = 4.5 uM, + TTFields 150 kHz 1.0 V/cm
# [15] = 13.5 uM, + TTFields 150 kHz 1.0 V/cm
# [16] = FOLFOX experiment, 0.5 uM, + TTFields 150 kHz 1.0 V/cm
# [17] = FOLFOX experiment, 0.5 uM, no TTFields
compound,measurement,setting,value
"O=c1[nH]cc(F)c(=O)[nH]1 [5-FU, 5-fluorouracil]",overall effect (colonies count multiplying the cytotoxic effect),KATO III cells [1]; [8],24 % from control
same,overall effect (colonies count multiplying the cytotoxic effect),"KATO III cells [1]; 1.5 uM, no TTFields",58 % from control
same,overall effect (colonies count multiplying the cytotoxic effect),KATO III cells [1]; [9],18 % from control
same,overall effect (colonies count multiplying the cytotoxic effect),"KATO III cells [1]; 4.5 uM, no TTFields",34 % from control
same,overall effect (colonies count multiplying the cytotoxic effect),KATO III cells [1]; [10],3 % from control
same,overall effect (colonies count multiplying the cytotoxic effect),"KATO III cells [1]; 13.5 uM, no TTFields",4 % from control
same,overall effect (colonies count multiplying the cytotoxic effect),KATO III cells [1]; [11],0 % from control
same,overall effect (colonies count multiplying the cytotoxic effect),"KATO III cells [1]; 40 uM, no TTFields",0 % from control
same,colonies count,KATO III cells [2]; [8],50 % from control
same,colonies count,"KATO III cells [2]; 1.5 uM, no TTFields",83 % from control
same,colonies count,KATO III cells [2]; [9],38 % from control
same,colonies count,"KATO III cells [2]; 4.5 uM, no TTFields",55 % from control
same,colonies count,KATO III cells [2]; [10],8 % from control
same,colonies count,"KATO III cells [2]; 13.5 uM, no TTFields",9 % from control
same,colonies count,KATO III cells [2]; [11],1 % from control
same,colonies count,"KATO III cells [2]; 40 uM, no TTFields",2 % from control
same,"colonies number (clonogenic effect and overall effect), drug + TTFields compared to drug alone",KATO III cells [2]; Two-way ANOVA P<0.001,significant reduction in colonies number
same,cytotoxic effect of drug + TTFields compared to drug alone,KATO III cells [3],significantly higher
same,cell count,AGS cells [4]; [12],61 % from control
same,cell count,"AGS cells [4]; 0.5 uM, no TTFields",90 % from control
same,cell count,AGS cells [4]; [13],47 % from control
same,cell count,"AGS cells [4]; 1.5 uM, no TTFields",83 % from control
same,cell count,AGS cells [4]; [14],27 % from control
same,cell count,"AGS cells [4]; 4.5 uM, no TTFields",52 % from control
same,cell count,AGS cells [4]; [15],15 % from control
same,cell count,"AGS cells [4]; 13.5 uM, no TTFields",24 % from control
same,cell count,"AGS cells [4]; 40 uM, + TTFields 150 kHz 1.0 V/cm",19 % from control
same,cell count,"AGS cells [4]; 40 uM, no TTFields",25 % from control
same,cell count,AGS cells [4]; [16],61 % from control
same,cell count,AGS cells [4]; [17],79 % from control
same,cytotoxic effect of drug + TTFields compared to drug alone,AGS cells [5],significantly higher
same,"elevation in percent of cells that undergo apoptosis, drug + TTFields compared to drug alone",AGS cells [6],higher
same,AnnV+ 7AAD+ cell fraction,AGS cells [6]; [12],8.00%
same,AnnV+ 7AAD− cell fraction,AGS cells [6]; [12],6.38%
same,AnnV− 7AAD+ cell fraction,AGS cells [6]; [12],1.03%
same,AnnV− 7AAD− cell fraction,AGS cells [6]; [12],84.58%
same,AnnV+ 7AAD+ cell fraction,"AGS cells [6]; 0.5 uM, no TTFields",5.33%
same,AnnV+ 7AAD− cell fraction,"AGS cells [6]; 0.5 uM, no TTFields",4.48%
same,AnnV− 7AAD+ cell fraction,"AGS cells [6]; 0.5 uM, no TTFields",1.40%
same,AnnV− 7AAD− cell fraction,"AGS cells [6]; 0.5 uM, no TTFields",88.78%
same,AnnV+ 7AAD+ cell fraction,AGS cells [6]; [13],9.05%
same,AnnV+ 7AAD− cell fraction,AGS cells [6]; [13],5.90%
same,AnnV− 7AAD+ cell fraction,AGS cells [6]; [13],1.28%
same,AnnV− 7AAD− cell fraction,AGS cells [6]; [13],83.80%
same,AnnV+ 7AAD+ cell fraction,"AGS cells [6]; 1.5 uM, no TTFields",5.48%
same,AnnV+ 7AAD− cell fraction,"AGS cells [6]; 1.5 uM, no TTFields",5.03%
same,AnnV− 7AAD+ cell fraction,"AGS cells [6]; 1.5 uM, no TTFields",1.23%
same,AnnV− 7AAD− cell fraction,"AGS cells [6]; 1.5 uM, no TTFields",88.25%
same,AnnV+ 7AAD+ cell fraction,AGS cells [6]; [14],12.35%
same,AnnV+ 7AAD− cell fraction,AGS cells [6]; [14],6.78%
same,AnnV− 7AAD+ cell fraction,AGS cells [6]; [14],2.48%
same,AnnV− 7AAD− cell fraction,AGS cells [6]; [14],78.43%
same,AnnV+ 7AAD+ cell fraction,"AGS cells [6]; 4.5 uM, no TTFields",6.40%
same,AnnV+ 7AAD− cell fraction,"AGS cells [6]; 4.5 uM, no TTFields",5.08%
same,AnnV− 7AAD+ cell fraction,"AGS cells [6]; 4.5 uM, no TTFields",1.25%
same,AnnV− 7AAD− cell fraction,"AGS cells [6]; 4.5 uM, no TTFields",87.28%
same,AnnV+ 7AAD+ cell fraction,AGS cells [6]; [15],14.45%
same,AnnV+ 7AAD− cell fraction,AGS cells [6]; [15],8.70%
same,AnnV− 7AAD+ cell fraction,AGS cells [6]; [15],2.63%
same,AnnV− 7AAD− cell fraction,AGS cells [6]; [15],74.20%
same,AnnV+ 7AAD+ cell fraction,"AGS cells [6]; 13.5 uM, no TTFields",8.45%
same,AnnV+ 7AAD− cell fraction,"AGS cells [6]; 13.5 uM, no TTFields",6.20%
same,AnnV− 7AAD+ cell fraction,"AGS cells [6]; 13.5 uM, no TTFields",0.90%
same,AnnV− 7AAD− cell fraction,"AGS cells [6]; 13.5 uM, no TTFields",84.45%
same,AnnV+ 7AAD+ cell fraction,AGS cells [6]; [16],10.3%
same,AnnV+ 7AAD− cell fraction,AGS cells [6]; [16],7.3%
same,AnnV− 7AAD+ cell fraction,AGS cells [6]; [16],1.7%
same,AnnV− 7AAD− cell fraction,AGS cells [6]; [16],80.8%
same,AnnV+ 7AAD+ cell fraction,AGS cells [6]; [17],4.3%
same,AnnV+ 7AAD− cell fraction,AGS cells [6]; [17],4.8%
same,AnnV− 7AAD+ cell fraction,AGS cells [6]; [17],1.8%
same,AnnV− 7AAD− cell fraction,AGS cells [6]; [17],89.1%
same,cell count,KATO III cells [7]; + TTFields 150 kHz 1.6 V/cm,47 % from control
same,cell count,KATO III cells [7]; no TTFields,70 % from control
